These results are taken from US10512607B2, “Polymeric particles, method for cytosolic delivery of cargo, methods of making the particles” (University of Florida Research Foundation, Inc., priority 2015, dated 2019).

One data set has as its system dendritic cells (DCs). In words: Calcein release from endosomal vesicles in dendritic cells. The settings on record: 2 h at 37° C. It counts as cell-based, mouse. The procedure:
DCs were isolated from mouse bone marrow tissues as previously described in Lewis et al. according to the guidelines set forth by the University of Florida Institutional Animal Care and Use Committee.
DCs were plated in 35 mm glass bottom culture dishes at a density of 5×10^4 cells in DC culture medium [DMEM:F12 1:1 (GE Healthcare Life Sciences), 10% fetal bovine serum, 1 mM sodium pyruvate, nonessential amino acids, penicillin-streptomycin, and 20 ng/mL GM-CSF (R&D systems)]. […] As a positive control, a portion of DCs were treated with the membrane permeable Acetoxymethyl ester of calcein (5 μM). Following treatment, cells were washed four times with phosphate buffered saline. New culture medium was added and the cells were imaged with a fluorescent microscope (Axiovert 200M microscope (Carl Zeiss, Oberkochen, Germany) using excitation/emission wavelengths of 495/515 nm at 200-fold magnification.
Images were analyzed by measuring the area of fluorescence per channel (green vs bright field). The values are reported as % relative fluorescence intensity per cell (RFI/cell).

For data set [1], the system named is Chinese hamster ovary (CHO-K1) cells. As to the kind of experiment: CytoTox96 LDH cytotoxicity assay. The format is cell-based. The settings on record: positive control for toxicity. The method, then: Chinese hamster ovary (CHO-K1) cells were grown in Ham's F12 medium (Mediatech) containing 10% fetal bovine serum (FBS, Hyclone), penicillin (100 units/mL), and streptomycin (100 μg/mL) at 37° C. in a humidified incubator with 5% CO2 [30]. Cell viability was determined via Trypan blue exclusion and was 97% with each passage.
Toxicity of MPs was determined employing CytoTox96 Non-radioactive Cytotoxity Assay (Promega). CHO cells were plated at a density of 10,000 cells per well in a 96 well tissue culture plate in 200 μL of cell culture medium. Cells were maintained at 37° C. in a humidified incubator in a 5% CO2 atmosphere. MPs were added at a ratio of 5, 10, 20, 30, 40, and 50 particles/cell and incubated at 37° C. for 24 h. The culture medium was transferred into wells of a clear bottom 96 well plate. Cells treated with 0.1% Triton X-100 were used as a positive control for 100% toxicity and cell culture medium alone was used for background subtraction for baseline lactate dehydrogenase (LDH) activity (background control). The cell supernatants were incubated with the developing reagents for 30 min per the manufacturer's instructions. The optical density of the developed color was determined by measuring absorbance at 490 nm. […]

`O=C(O)CN(CC(=O)O)Cc1cc2c(cc1O)Oc1cc(O)c(CN(CC(=O)O)CC(=O)O)cc1C21OC(=O)c2ccccc21` [calcein alone]: the “cytosolic distribution of calcein (fluorescent area over cell area)” value with dendritic cells (DCs) was “less than 10%”. For the compound “Acetoxymethyl ester of calcein [calcein AM]”, the “cytosolic distribution of calcein (fluorescent area over cell area)” value with dendritic cells (DCs) was approximately 95%. Triton X-100: in data set [1], the “LDH release relative to basal background LDH activity in media without cells” value came to 21 fold.
